# Source: patent US8598168B2 (MethylGene Inc., priority 2006, dated 2013)
# Tests used:
# [1] = molecular target: HDAC-1 (Homo sapiens, UniProt Q13547); test: Inhibition of Histone Deacetylase Enzymatic (HDAC-1) Activity; assay type: biochemical; details: Table 21
# Protocol: The following protocol was used to assay the compounds of the invention.
# The mixture was pre-incubated for 5 minutes at room temperature. The reaction was started by bringing the temperature to 37° C. and adding 15 μl substrate. Total reaction volume was 50 μl.
# [2] = tested on: human colon cancer HCT116 cells; test: MTT Assay; assay type: cell-based; details: HCT-116, 72 hours, Table 21
# Protocol: Compounds at various concentrations were added to human colon cancer HCT116 cells plated in 96-well plates. Cells were incubated for 72 hours at 37° C. in 5% CO2 incubator. MTT (3-[4,5-dimethylthiazol-2-yl]-2,5 diphenyl tetrazolium bromide, Sigma) was added at a final concentration of 0.5 mg/ml and incubated with the cells for 4 hours before an equal volume of solubilization buffer (50% N,N-dimethylformamide, 20% SDS, pH 4.7) was added onto cultured cells. After overnight incubation, solubilized dye was quantified by colorimetric reading at […] using a reference at 630 nM. OD values were converted to cell numbers according to a standard growth curve of the relevant cell line. The concentration which reduces cell numbers to 50% of those of DMSO-treated cells is determined as MTT IC50.
# [3] = Log D (comparison with previously disclosed compounds); assay type: physicochemical; details: pH 7.4
# Chain of HDAC-1 (Q13547 whole entry): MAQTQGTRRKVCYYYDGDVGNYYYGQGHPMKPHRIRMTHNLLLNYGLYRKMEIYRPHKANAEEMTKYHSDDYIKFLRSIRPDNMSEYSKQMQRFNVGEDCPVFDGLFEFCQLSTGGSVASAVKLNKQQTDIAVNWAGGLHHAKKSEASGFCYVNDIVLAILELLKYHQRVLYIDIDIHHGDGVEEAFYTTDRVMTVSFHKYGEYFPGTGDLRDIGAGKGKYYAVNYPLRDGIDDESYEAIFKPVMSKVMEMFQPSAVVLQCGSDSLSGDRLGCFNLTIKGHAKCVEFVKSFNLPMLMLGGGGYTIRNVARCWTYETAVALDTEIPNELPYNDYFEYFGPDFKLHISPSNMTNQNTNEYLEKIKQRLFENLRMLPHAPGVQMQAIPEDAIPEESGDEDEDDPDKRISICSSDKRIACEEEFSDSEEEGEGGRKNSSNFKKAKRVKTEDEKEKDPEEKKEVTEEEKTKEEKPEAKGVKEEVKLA
IC50 [1] [nM],IC50 [2] [nM],logD [3],SMILES
< 1000,< 1000,2.11,"CN(C)[C@@H]1CCN(Cc2ccc(C(=O)Nc3cc(-c4cccs4)ccc3N)cc2)C1 [compound 9, (R)—N-(2-Amino-5-(thiophen-2-yl)phenyl)-4-((3-(dimethylamino)pyrrolidin-1-yl)methyl)benzamide]"
< 1000,< 1000,3.1,"COCCN(CCOC)Cc1ccc(C(=O)Nc2cc(-c3cccs3)ccc2N)cc1 [compound 10, N-(2-amino-5-(thiophen-2-yl)phenyl)-4-((bis(2-methoxyethyl)amino)methyl)benzamide]"
< 1000,< 1000,3.03,"Nc1ccc(-c2cccs2)cc1NC(=O)c1ccc(CN2CCC[C@@H](O)C2)cc1 [compound 11, (R)-N-(2-amino-5-(thiophen-2-yl)phenyl)-4-((3-hydroxypiperidin-1-yl)methyl)benzamide]"
< 1000,1000 to 5000,3.86,"Nc1ccc(-c2cccs2)cc1NC(=O)c1ccc(CN2CCCCC2)cc1 [compound 12, N-(2-amino-5-(thiophen-2-yl)phenyl)-4-(piperidin-1-ylmethyl)benzamide]"
< 1000,< 1000,2.22,"COCCN1CCN(Cc2ccc(C(=O)Nc3cc(-c4cccs4)ccc3N)cc2)CC1 [compound 13, N-(2-amino-5-(thiophen-2-yl)phenyl)-4-((4-(2-methoxyethyl)piperazin-1-yl)methyl)benzamide]"
< 1000,< 1000,3.2,"CCN(C)Cc1ccc(C(=O)Nc2cc(-c3cccs3)ccc2N)cc1 [compound 14, N-(2-amino-5-(thiophen-2-yl)phenyl)-4-((ethyl(methyl)amino)methyl)benzamide]"
< 1000,< 1000,2.15,"CC(C)N1CCN(Cc2ccc(C(=O)Nc3cc(-c4cccs4)ccc3N)cc2)CC1 [compound 15, N-(2-amino-5-(thiophen-2-yl)phenyl)-4-((4-isopropylpiperazin-1-yl)methyl)benzamide]"
< 1000,< 1000,3.3,"Nc1ccc(-c2cccs2)cc1NC(=O)c1ccc(CN2CCN(C3CCCC3)CC2)cc1 [compound 16, N-(2-amino-5-(thiophen-2-yl)phenyl)-4-((4-cyclopentylpiperazin-1-yl)methyl)benzamide]"
< 1000,< 1000,1.64,"CN(C)CCN(C)Cc1ccc(C(=O)Nc2cc(-c3cccs3)ccc2N)cc1 [compound 18, N-(2-amino-5-(thiophen-2-yl)phenyl)-4-(((2-(dimethylamino)ethyl)(methyl)amino)methyl)benzamide]"
< 1000,< 1000,2.59,"Nc1ccc(-c2cccs2)cc1NC(=O)c1ccc(CN2CCC(N3CCOCC3)CC2)cc1 [compound 77, N-(2-amino-5-(thiophen-2-yl)phenyl)-4-((4-morpholino-piperidin-1-yl)-methyl)-benzamide]"
< 1000,< 1000,2.29,"CN1CCN(Cc2ccc(C(=O)Nc3cc(-c4cccs4)ccc3N)cc2)CC1 [compound 78, N-(2-amino-5-(thiophen-2-yl)phenyl)-4-((4-methylpiperazin-1-yl)methyl)-benzamide]"
< 1000,< 1000,3.19,"CCN(CC)Cc1ccc(C(=O)Nc2cc(-c3cccs3)ccc2N)cc1 [compound 79, N-(2-amino-5-(thiophen-2-yl)phenyl)-4-((diethylamino)-methyl)benzamide]"
< 1000,< 1000,1.54,"Nc1ccc(-c2cccs2)cc1NC(=O)c1ccc(CN2CCN(CCn3ccnc3)CC2)cc1 [compound 80, 4-((4-(2-(1H-imidazol-1-yl)ethyl)-piperazin-1-yl)-methyl)-N-(2-amino-5-(thiophen-2-yl)phenyl)-benzamide]"
< 1000,< 1000,2.11,"CN(C)[C@H]1CCN(Cc2ccc(C(=O)Nc3cc(-c4cccs4)ccc3N)cc2)C1 [compound 81, (S)-N-(2-amino-5-(thiophen-2-yl)phenyl)-4-((3-(dimethylamino)-pyrrolidin-1-yl)methyl)-benzamide]"
< 1000,< 1000,2.6,"Nc1ccc(-c2cccs2)cc1NC(=O)c1ccc(CN2CC[C@H](O)C2)cc1 [compound 82, (S)-N-(2-amino-5-(thiophen-2-yl)phenyl)-4-((3-hydroxy-pyrrolidin-1-yl)methyl)-benzamide]"
< 1000,1000 to 5000,2.6,"Nc1ccc(-c2cccs2)cc1NC(=O)c1ccc(CN2CC[C@@H](O)C2)cc1 [compound 83, (R)-N-(2-amino-5-(thiophen-2-yl)phenyl)-4-((3-hydroxy-pyrrolidin-1-yl)methyl)-benzamide]"

IC50 [1] [nM],IC50 [2] [nM],logD [3],SMILES
< 1000,< 1000,2.15,"CC(=O)N[C@@H]1CCN(Cc2ccc(C(=O)Nc3cc(-c4cccs4)ccc3N)cc2)C1 [compound 84, (R)-4-((3-acetamido-pyrrolidin-1-yl)methyl)-N-(2-amino-5-(thiophen-2-yl)phenyl)-benzamide]"
< 1000,< 1000,3.32,"Nc1ccc(-c2cccs2)cc1NC(=O)c1ccc(CN2CCN(c3ccncc3)CC2)cc1 [compound 85, N-(2-amino-5-(thiophen-2-yl)phenyl)-4-((4-(pyridin-4-yl)piperazin-1-yl)methyl)-benzamide]"
< 1000,< 1000,0.86,"Nc1ccc(-c2cccs2)cc1NC(=O)c1ccc(CN2CCC[C@H]2CN2CCCC2)cc1 [compound 86, (S)-N-(2-amino-5-(thiophen-2-yl)phenyl)-4-((2-(pyrrolidin-1-ylmethyl)-pyrrolidin-1-yl)methyl)-benzamide]"
< 1000,< 1000,2.15,"CC(=O)N[C@H]1CCN(Cc2ccc(C(=O)Nc3cc(-c4cccs4)ccc3N)cc2)C1 [compound 87, (S)-4-((3-acetamido-pyrrolidin-1-yl)methyl)-N-(2-amino-5-(thiophen-2-yl)phenyl)-benzamide]"
< 1000,< 1000,3.38,"Nc1ccc(-c2cccs2)cc1NC(=O)c1ccc(CN2CCN(c3ccccn3)CC2)cc1 [compound 89, N-(2-amino-5-(thiophen-2-yl)phenyl)-4-((4-(pyridin-2-yl)piperazin-1-yl)methyl)-benzamide]"
< 1000,< 1000,3.15,"Nc1ccc(-c2cccs2)cc1NC(=O)c1ccc(CN2CCCC2)cc1 [compound 90, N-(2-amino-5-(thiophen-2-yl)phenyl)-4-(pyrrolidin-1-ylmethyl)-benzamide]"
< 1000,< 1000,4.01,"Nc1ccc(-c2cccs2)cc1NC(=O)c1ccc(CN2CCN(Cc3ccccc3)CC2)cc1 [compound 91, N-(2-amino-5-(thiophen-2-yl)phenyl)-4-((4-benzylpiperazin-1-yl)methyl)-benzamide]"
< 1000,< 1000,1.94,"CN(C)[C@H]1CCN(c2ccc(C(=O)Nc3cc(-c4cccs4)ccc3N)cc2)C1 [compound 101, (S)—N-(2-Amino-5-(thiophen-2-yl)phenyl)-4-(3-(dimethylamino)pyrrolidin-1-yl)benzamide]"
< 1000,< 1000,1.52,"CC(C)N1CCN(c2ccc(C(=O)Nc3cc(-c4cccs4)ccc3N)cc2)CC1 [compound 102, N-(2-amino-5-(thiophen-2-yl)phenyl)-4-(4-isopropyl-piperazin-1-yl)benzamide]"
< 1000,< 1000,2.68,"Nc1ccc(-c2cccs2)cc1NC(=O)c1ccc(N2CCN(C3CCCC3)CC2)cc1 [compound 103, N-(2-amino-5-(thiophen-2-yl)phenyl)-4-(4-cyclopentyl-piperazin-1-yl)-benzamide]"
< 1000,< 1000,2.51,"Nc1ccc(-c2cccs2)cc1NC(=O)c1ccc(N2CCC(N3CCOCC3)CC2)cc1 [compound 104, N-(2-amino-5-(thiophen-2-yl)phenyl)-4-(4-morpholino-piperidin-1-yl)benzamide]"
< 1000,< 1000,1.6,"Nc1ccc(-c2cccs2)cc1NC(=O)c1ccc(N2CCC(N3CCCC3)CC2)cc1 [compound 105, N-(2-amino-5-(thiophen-2-yl)phenyl)-4-(4-(pyrrolidin-1-yl)piperidin-1-yl)benzamide]"
< 1000,–,2.58,"CCN(CC)CCSc1ccc(C(=O)Nc2cc(-c3cccs3)ccc2N)cc1 [compound 107, N-(2-amino-5-(thiophen-2-yl)phenyl)-4-(2-(diethyl-amino)-ethylthio)-benzamide]"
< 1000,–,2.32,"Nc1ccc(-c2cccs2)cc1NC(=O)N1CCN(Cc2ccc3c(c2)OCO3)CC1 [compound 316, N-(2-Amino-5-(thiophen-2-yl)phenyl)-4-(benzo[d][1,3]dioxol-5-ylmethyl)piperazine-1-carboxamide]"
< 1000,–,3.21,"Nc1ccc(-c2ccccc2)cc1NC(=O)C1CCN(S(=O)(=O)c2ccc([N+](=O)[O-])cc2)CC1 [compound 320, N-(4-Aminobiphenyl-3-yl)-1-(4-nitrophenylsulfonyl)piperidine-4-carboxamide]"
